Measurements as given in the Kinase Knowledgebase extract (Sharma et al. 2016).

Biological target: PIK3CA (human) (UniProt P42336)
Assay: Assessment of PIK3CA Kinase Activity

Chain of PIK3CA (human) (P42336 whole entry, looked up): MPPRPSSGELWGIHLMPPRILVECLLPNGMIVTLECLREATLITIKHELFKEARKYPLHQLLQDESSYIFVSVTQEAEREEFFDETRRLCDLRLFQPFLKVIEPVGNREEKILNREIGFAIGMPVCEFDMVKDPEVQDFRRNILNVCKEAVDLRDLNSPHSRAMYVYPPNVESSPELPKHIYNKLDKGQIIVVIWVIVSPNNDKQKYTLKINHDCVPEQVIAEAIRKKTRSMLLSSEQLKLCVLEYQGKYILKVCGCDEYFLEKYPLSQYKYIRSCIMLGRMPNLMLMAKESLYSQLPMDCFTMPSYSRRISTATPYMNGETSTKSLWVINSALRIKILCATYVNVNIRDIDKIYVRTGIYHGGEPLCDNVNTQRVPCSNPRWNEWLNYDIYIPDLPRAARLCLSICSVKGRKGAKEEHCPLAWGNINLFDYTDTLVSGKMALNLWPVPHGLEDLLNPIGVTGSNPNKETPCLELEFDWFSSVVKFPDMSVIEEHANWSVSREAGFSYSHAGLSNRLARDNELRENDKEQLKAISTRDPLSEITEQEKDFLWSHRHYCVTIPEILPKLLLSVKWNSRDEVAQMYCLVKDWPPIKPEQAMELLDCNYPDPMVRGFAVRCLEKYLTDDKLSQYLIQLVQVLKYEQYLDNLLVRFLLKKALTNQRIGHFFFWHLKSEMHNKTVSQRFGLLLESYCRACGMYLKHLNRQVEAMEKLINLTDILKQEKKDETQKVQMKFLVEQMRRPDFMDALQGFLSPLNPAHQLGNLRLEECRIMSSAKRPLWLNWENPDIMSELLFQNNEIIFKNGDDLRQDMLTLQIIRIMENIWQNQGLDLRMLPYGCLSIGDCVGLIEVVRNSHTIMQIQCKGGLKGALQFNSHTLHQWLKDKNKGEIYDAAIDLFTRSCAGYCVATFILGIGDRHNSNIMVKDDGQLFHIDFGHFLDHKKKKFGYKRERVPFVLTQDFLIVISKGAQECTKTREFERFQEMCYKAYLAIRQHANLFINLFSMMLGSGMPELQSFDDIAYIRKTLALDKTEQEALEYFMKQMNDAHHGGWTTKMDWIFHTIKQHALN

Structure (SMILES) | IC50 [nM]
CC(C)n1nc(N)nc1-c1nc2c(s1)CCOc1cc(C(=O)NC3CN(C)C3)ccc1-2 | < 1000
C[C@H](O)CNC(=O)c1ccc(Cl)c(N(C)C(=O)c2cc3c(s2)-c2ccc(C(=O)NCCS(C)(=O)=O)cc2OCC3)c1 | < 1000
COCCn1ccc(-c2ccc3c(c2)-c2nc(-c4ncnn4C(C)C)sc2CCO3)cc1=O | < 1000
O=C(c1nc2c(s1)CCOc1cc(-c3cn[nH]c3)ccc1-2)N1CCC(F)(F)CC1 | < 1000
O=C(c1nc2c(s1)CCOc1cc(-c3cn[nH]c3)ccc1-2)N1CC[C@@H](N2CCOCC2)C1 | < 1000
CC(C)(O)Cn1cc(-c2ccc3c(c2)OCCc2sc(N4C(=O)NCC4(C)C)nc2-3)cn1 | < 1000
CC(C)n1ncnc1-c1nc2c(s1)CCOc1ccc(C3CN(C(=O)[C@@H](C)O)C3)cc1-2 | < 1000
CC(C)Nc1ccc2c(n1)-c1sc(-c3ncnn3-c3ccc(F)cc3F)cc1CCO2 | < 1000
CNC(=O)c1ccc2c(c1)OCCc1cc(C(=O)N(C)c3cc(C(=O)NCCO)ccc3Cl)sc1-2 | < 1000
COCCN1CC(c2ccc3c(c2)OCCc2sc(-c4nc(C)nn4C(C)C)nc2-3)C1 | < 1000
O=C(c1nc2c(s1)CCOc1cc(-c3cn[nH]c3)ccc1-2)N1CCCCCCC1 | < 1000
Cc1nc(-c2nc3c(s2)CCOc2cc(-c4cncn4CCO)ccc2-3)n(C(C)C)n1 | < 1000
CC(=O)N1CCN(c2ccc3c(n2)-c2sc(-c4ncnn4-c4ccc(F)cc4F)cc2CCO3)CC1 | < 1000
O=C(c1nc2c(s1)CCOc1cc(-c3cn[nH]c3)ccc1-2)N1CC[C@@H](O)C1 | < 1000
CN(C(=O)c1cc2c(s1)-c1ccc(C(=O)NCCS(C)(=O)=O)cc1OCC2)c1cc(C(=O)NCCO)ccc1Cl | < 1000
CNS(=O)(=O)CCN1CC(c2ccc3c(c2)OCCc2sc(-c4ncnn4C(C)C)nc2-3)C1 | < 1000
COc1ncccc1-c1ccc2c(c1)-c1nc(C(=O)N(CCO)C(C)C)sc1CCO2 | < 1000
CC(C)n1ncnc1-c1nc2c(s1)CCOc1cc(C3CN(CC(N)=O)C3)ccc1-2 | < 1000
COCCNc1ccc2c(n1)-c1sc(-c3ncnn3-c3ccc(F)cc3F)cc1CCO2 | < 1000
CS(=O)(=O)N1CC(Nc2ccc3c(n2)-c2sc(-c4ncnn4-c4ccc(F)cc4F)cc2CCO3)C1 | < 1000
O=C(c1nc2c(s1)CCOc1cc(-c3cn[nH]c3)ccc1-2)N1CCC[C@@H](CO)C1 | < 1000
N#C[C@@H]1CCCN1C(=O)c1nc2c(s1)CCOc1cc(-c3cn[nH]c3)ccc1-2 | < 1000
O=C(O)c1cccc(-c2ccc3c(c2)OCCc2sc(-c4ncnn4CC(F)(F)F)nc2-3)c1 | < 1000

Structure (SMILES) | IC50 [nM]
CC(C)CN(C)C(=O)c1nc2c(s1)CCOc1cc(-c3cn[nH]c3)ccc1-2 | < 1000
CC(C)n1ncnc1-c1nc2c(s1)CCOc1ccc(-c3cnn(S(=O)(=O)c4ccccc4)c3)cc1-2 | < 1000
O=C(c1nc2c(s1)CCOc1cc(-c3cn[nH]c3)ccc1-2)N1CCN(C(=O)C(F)(F)F)CC1 | < 1000
CC(C)Oc1cc(-c2ccc3c(c2)-c2nc(-c4ncnn4C(C)C)sc2CCO3)ccn1 | < 1000
CC(C)n1ncnc1-c1nc2c(s1)CCOc1ccc(C3CN(Cc4ccc(F)cc4F)C3)cc1-2 | < 1000
CC1(C)C(=O)NC(=O)N1c1nc2c(s1)CCOc1cc(C3CCNCC3)ccc1-2 | < 1000
COc1ccc(-c2ccc3c(n2)-c2sc(-c4ncnn4-c4ccc(F)cc4F)cc2CCO3)cn1 | < 1000
CC(C)(O)Cn1cc(-c2ccc3c(c2)OCCc2sc(-c4ncnn4CCO)nc2-3)cn1 | < 1000
CC(C)n1ncnc1-c1nc2c(s1)CCOc1ccc(C3CCN(C(=O)[C@@H](C)O)CC3)cc1-2 | < 1000
Cc1nc(-c2nc3c(s2)CCOc2cc(C4CN(CCCO)C4)ccc2-3)n(C(C)C)n1 | < 1000
Cc1nc(-c2nc3c(s2)CCOc2cc(C4COC4)ccc2-3)n(C(C)C)n1 | < 1000
Fc1ccc(-n2ncnc2-c2cc3c(s2)-c2ccc(C4CNC4)cc2OCC3)c(F)c1 | < 1000
CC(=O)Nc1ccc(-c2ccc3c(n2)-c2sc(-c4ncnn4-c4ccc(F)cc4F)cc2CCO3)cn1 | < 1000
CC(C)NC(=O)CN1CC(c2ccc3c(c2)OCCc2sc(-c4ncnn4C(C)C)nc2-3)C1 | < 1000
CC(C)n1ncnc1-c1nc2c(s1)CCOc1cc(C3CN(S(C)(=O)=O)C3)ccc1-2 | < 1000
O=C(c1nc2c(s1)CCOc1cc(-c3cn[nH]c3)ccc1-2)N1CCCNCC1 | < 1000
CC(C)N(CCCO)C(=O)c1nc2c(s1)CCOc1cc(-c3cn[nH]c3)ccc1-2 | < 1000
Cc1nc(-c2nc3c(s2)CCOc2cc(CNS(C)(=O)=O)ccc2-3)n(C(C)C)n1 | < 1000
CC(C)N(CCO)C(=O)c1nc2c(s1)CCOc1ccc(-c3cnn(CCO)c3)cc1-2 | < 1000
OCC(O)CNc1ccc2c(n1)-c1sc(-c3ncnn3-c3ccc(F)cc3F)cc1CCO2 (stereo unspecified) | < 1000
CO[C@@H]1CCCN(C(=O)c2nc3c(s2)CCOc2cc(-c4cn[nH]c4)ccc2-3)C1 | < 1000
OCCCCc1ccc2c(n1)-c1sc(-c3ncnn3-c3ccc(F)cc3F)cc1CCO2 | < 1000
Cc1c[nH]c(=O)c(-c2ccc3c(c2)-c2nc(-c4ncnn4C(C)C)sc2CCO3)c1 | < 1000
